# Counter-ions that a name gives are not always drawn.
# Tested on: Pseudoperonospora cubensis
# Test: Protection test of Pseudoperonospora cubensis on cucumber cotyledons
# Assay type: in vivo
# Details: 144 h, spraying concentration 1000 ppm, water dispersible powder sprayed onto cucumber cotyledons (var. Sagami-Hanjiro) one day before inoculation, incidence scored six days after inoculation, read-out: Protective value
# Method: Water dispersible powders were prepared in the same manner as in Formulation Example 2 using the compound (2a), (2aa), (2b), (2ba), (15), (16), (17), (18), (19), or (20). The each water dispersible powder was diluted with water to a predetermined concentration (1000 mg/l) and suspended. The diluted suspension was sprayed onto cucumber cotyledons (var. Sagami-Hanjiro) grown in a rectangular plastic pot (6.4 cm×6.4 cm) at 100 1/10 a. After air-drying the sprayed leaves one day, a Pseudoperonospora cubensis spore suspension was sprayed onto the leaves to inoculate, and the leaves were maintained at 25° C. under high humidity conditions. After six days from the inoculation, the incidence of Pseudoperonospora cubensis was investigated according to the following criteria. The protective value is calculated according to the following equation 1.
# Protective value(%)=(1−average incidence in sprayed area/average incidence in non-sprayed area)×100 [Equation 1]
row,Compound,pest or weed control at 1000 ppm [%]
1,"CCCN(CCC)CCCCNCc1ccc(C#N)cc1 [(2a), 4-[(4-dipropylaminobutyl)amino]methylbenzonitrile]",100
2,"CCCN(CCC)CCCCN(C)Cc1ccc(C#N)cc1 [(2b), 4-[(4-dipropylaminobutyl)methylamino]methylbenzonitrile]",100
3,"CCCN(CCC)CCCCN(Cc1ccc(Br)cc1)Cc1ccc(C#N)cc1 [(15), 4-{[(4-bromobenzyl)-(4-dipropylaminobutyl)amino]methyl}benzonitrile]",100
4,"CCCN(CCC)CCCCN(Cc1ccc(C#N)cc1)Cc1ccc(N(CC)CC)cc1 [(16), 4-{[(4-diethylaminobenzyl)-(4-dipropylaminobutyl)amino]methyl}benzonitrile]",100
5,"CCCN(CCC)CCCCN(Cc1ccc(C#N)cc1)Cc1ccc(C)o1 [(17), 4-{[(4-dipropylaminobutyl)-(5-methylfuran-2-ylmethyl)amino]methyl}benzonitrile]",100
6,"CCCN(CCC)CCCCN(Cc1ccc(C#N)cc1)Cc1ccc[nH]1 [(18), 4-{[(4-dipropylaminobutyl)-(1H-pyrrol-2-ylmethyl)amino]methyl}benzonitrile]",100
7,"CCCN(CCC)CCCCN(Cc1ccc(C#N)cc1)Cc1ccc(OC)cc1 [(19), 4-{[(4-dipropylaminobutyl)-(4-methoxybenzyl)amino]-methyl}-benzonitrile]",90
8,"CCCN(CCC)CCCCN(CC(=O)OCc1ccccc1)Cc1ccc(C#N)cc1 [(20), [(4-cyanobenzyl)-(4-dipropylaminobutyl)amino]benzyl acetate]",100

# Tested on: not given
# Test: not given
# Details: not given
row,melting point [°C],Compound
1,105 to 106,CCCN(CCC)CCCCN(CCOC(C)=O)Cc1ccc(CN)cc1.Cl
2,205 to 210,CCCN(CCC)CCCCNCc1ccc(CN)cc1.Cl

row,Compound,melting point [°C]
1,"CCCN(CCC)CCCCNCc1ccc(C#N)cc1 (as salt: hydrochloride) [(2aa), 4-[(4-dipropylaminobutyl)amino]methylbenzonitrile hydrochloride]",198 to 200

# Reference: US7977512B2, “Amine derivative, and production method and use thereof” (Kureha Corporation, priority 2005, dated 2011)
